Measured values taken from ChEMBL document CHEMBL3751798, “Targeting cancer cells with oleanolic and ursolic acid derived hydroxamates” (Bioorg Med Chem Lett, 2016).

Tested on: HT-29
Assay: Cytotoxicity against human HT-29 cells after 96 hrs by SRB assay
Type: functional, cell-based
Conditions: HT-29, 96 h

CON(C)C(=O)[C@]12CC[C@@H](C)[C@H](C)[C@H]1C1=CC[C@@H]3[C@@]4(C)CC[C@H](O)C(C)(C)[C@@H]4CC[C@@]3(C)[C@]1(C)CC2 and CON(C)C(=O)[C@]12CC[C@@H](C)[C@H](C)[C@H]1C1=CC[C@@H]3[C@@]4(C)CCC(=O)C(C)(C)[C@@H]4CC[C@@]3(C)[C@]1(C)CC2 are within 1.5-fold of each other in EC50: 18.4 µM for the first, 18.7 µM for the second.

CON(C)C(=O)[C@]12CCC(C)(C)C[C@H]1C1=CC[C@@H]3[C@@]4(C)CCC(=O)C(C)(C)[C@@H]4CC[C@@]3(C)[C@]1(C)CC2 and CN(O)C(=O)[C@]12CCC(C)(C)C[C@H]1C1=CC[C@@H]3[C@@]4(C)CCC(=O)C(C)(C)[C@@H]4CC[C@@]3(C)[C@]1(C)CC2 are within 1.5-fold of each other in EC50: 15.6 µM for the first, 11.9 µM for the second.

First: CON(C)C(=O)[C@]12CCC(C)(C)C[C@H]1C1=CC[C@@H]3[C@@]4(C)CC[C@H](O)C(C)(C)[C@@H]4CC[C@@]3(C)[C@]1(C)CC2
Second: CC(=O)O[C@H]1CC[C@]2(C)[C@H]3CC=C4[C@@H]5[C@@H](C)[C@H](C)CC[C@]5(C(=O)N(C)O)CC[C@@]4(C)[C@]3(C)CC[C@H]2C1(C)C
The EC50 of the first is 1.6-fold lower: 5.6 µM for the first, 8.7 µM for the second. The first is the more potent here.

Tested on: FaDu
Assay: Cytotoxicity against human FADU cells after 96 hrs by SRB assay
Type: functional, cell-based
Conditions: not given

Going from CON(C)C(=O)[C@]12CC[C@@H](C)[C@H](C)[C@H]1C1=CC[C@@H]3[C@@]4(C)CC[C@H](O)C(C)(C)[C@@H]4CC[C@@]3(C)[C@]1(C)CC2 to CON(C)C(=O)[C@]12CC[C@@H](C)[C@H](C)[C@H]1C1=CC[C@@H]3[C@@]4(C)CCC(=O)C(C)(C)[C@@H]4CC[C@@]3(C)[C@]1(C)CC2, the EC50 falls from 26.8 µM to 8.3 µM (3.2-fold).

First: CON(C)C(=O)[C@]12CCC(C)(C)C[C@H]1C1=CC[C@@H]3[C@@]4(C)CCC(=O)C(C)(C)[C@@H]4CC[C@@]3(C)[C@]1(C)CC2
Second: CN(O)C(=O)[C@]12CCC(C)(C)C[C@H]1C1=CC[C@@H]3[C@@]4(C)CCC(=O)C(C)(C)[C@@H]4CC[C@@]3(C)[C@]1(C)CC2
The EC50 of the first is 1.7-fold higher: 24.3 µM for the first, 14.1 µM for the second.

Going from CON(C)C(=O)[C@]12CCC(C)(C)C[C@H]1C1=CC[C@@H]3[C@@]4(C)CC[C@H](O)C(C)(C)[C@@H]4CC[C@@]3(C)[C@]1(C)CC2 to CC(=O)O[C@H]1CC[C@]2(C)[C@H]3CC=C4[C@@H]5[C@@H](C)[C@H](C)CC[C@]5(C(=O)N(C)O)CC[C@@]4(C)[C@]3(C)CC[C@H]2C1(C)C, the EC50 falls from 29.8 µM to 11.3 µM (2.6-fold). The second is the more potent here.

Tested on: A2780
Assay: Cytotoxicity against human A2780 cells after 96 hrs by SRB assay
Type: functional, cell-based
Conditions: A2780, 96 h

Compared with CON(C)C(=O)[C@]12CC[C@@H](C)[C@H](C)[C@H]1C1=CC[C@@H]3[C@@]4(C)CC[C@H](O)C(C)(C)[C@@H]4CC[C@@]3(C)[C@]1(C)CC2, CON(C)C(=O)[C@]12CC[C@@H](C)[C@H](C)[C@H]1C1=CC[C@@H]3[C@@]4(C)CCC(=O)C(C)(C)[C@@H]4CC[C@@]3(C)[C@]1(C)CC2 is 4.8-fold lower in EC50: 21.8 µM for the first, 4.5 µM for the second. The second is the more potent here.

Compared with CON(C)C(=O)[C@]12CCC(C)(C)C[C@H]1C1=CC[C@@H]3[C@@]4(C)CCC(=O)C(C)(C)[C@@H]4CC[C@@]3(C)[C@]1(C)CC2, CN(O)C(=O)[C@]12CCC(C)(C)C[C@H]1C1=CC[C@@H]3[C@@]4(C)CCC(=O)C(C)(C)[C@@H]4CC[C@@]3(C)[C@]1(C)CC2 is 1.8-fold lower in EC50: 8.8 µM for the first, 4.8 µM for the second. The second is the more potent here.

First: CON(C)C(=O)[C@]12CCC(C)(C)C[C@H]1C1=CC[C@@H]3[C@@]4(C)CC[C@H](O)C(C)(C)[C@@H]4CC[C@@]3(C)[C@]1(C)CC2
Second: CC(=O)O[C@H]1CC[C@]2(C)[C@H]3CC=C4[C@@H]5[C@@H](C)[C@H](C)CC[C@]5(C(=O)N(C)O)CC[C@@]4(C)[C@]3(C)CC[C@H]2C1(C)C
The EC50 of the first is 1.9-fold lower: 3.4 µM for the first, 6.5 µM for the second. The first is the more potent here.

Tested on: A549
Assay: Cytotoxicity against human A549 cells after 96 hrs by SRB assay
Type: functional, cell-based
Conditions: A549, 96 h

CON(C)C(=O)[C@]12CC[C@@H](C)[C@H](C)[C@H]1C1=CC[C@@H]3[C@@]4(C)CC[C@H](O)C(C)(C)[C@@H]4CC[C@@]3(C)[C@]1(C)CC2 and CON(C)C(=O)[C@]12CC[C@@H](C)[C@H](C)[C@H]1C1=CC[C@@H]3[C@@]4(C)CCC(=O)C(C)(C)[C@@H]4CC[C@@]3(C)[C@]1(C)CC2 are within 1.5-fold of each other in EC50: 11.6 µM for the first, 8.7 µM for the second.

CON(C)C(=O)[C@]12CCC(C)(C)C[C@H]1C1=CC[C@@H]3[C@@]4(C)CCC(=O)C(C)(C)[C@@H]4CC[C@@]3(C)[C@]1(C)CC2 and CN(O)C(=O)[C@]12CCC(C)(C)C[C@H]1C1=CC[C@@H]3[C@@]4(C)CCC(=O)C(C)(C)[C@@H]4CC[C@@]3(C)[C@]1(C)CC2 are within 1.5-fold of each other in EC50: 5.6 µM for the first, 8.1 µM for the second.

First: CON(C)C(=O)[C@]12CCC(C)(C)C[C@H]1C1=CC[C@@H]3[C@@]4(C)CC[C@H](O)C(C)(C)[C@@H]4CC[C@@]3(C)[C@]1(C)CC2
Second: CC(=O)O[C@H]1CC[C@]2(C)[C@H]3CC=C4[C@@H]5[C@@H](C)[C@H](C)CC[C@]5(C(=O)N(C)O)CC[C@@]4(C)[C@]3(C)CC[C@H]2C1(C)C
The EC50 of the first is 2.1-fold higher: 11.8 µM for the first, 5.7 µM for the second.

Tested on: MCF7
Assay: Cytotoxicity against human MCF7 cells after 96 hrs by SRB assay
Type: functional, cell-based
Conditions: MCF7, 96 h

Compared with CON(C)C(=O)[C@]12CC[C@@H](C)[C@H](C)[C@H]1C1=CC[C@@H]3[C@@]4(C)CC[C@H](O)C(C)(C)[C@@H]4CC[C@@]3(C)[C@]1(C)CC2, CON(C)C(=O)[C@]12CC[C@@H](C)[C@H](C)[C@H]1C1=CC[C@@H]3[C@@]4(C)CCC(=O)C(C)(C)[C@@H]4CC[C@@]3(C)[C@]1(C)CC2 is 1.7-fold lower in EC50: 18.7 µM for the first, 10.7 µM for the second. The second is the more potent here.

CON(C)C(=O)[C@]12CCC(C)(C)C[C@H]1C1=CC[C@@H]3[C@@]4(C)CCC(=O)C(C)(C)[C@@H]4CC[C@@]3(C)[C@]1(C)CC2 and CN(O)C(=O)[C@]12CCC(C)(C)C[C@H]1C1=CC[C@@H]3[C@@]4(C)CCC(=O)C(C)(C)[C@@H]4CC[C@@]3(C)[C@]1(C)CC2 are the same in EC50: 16.4 µM for the first, 16.4 µM for the second.

Going from CON(C)C(=O)[C@]12CCC(C)(C)C[C@H]1C1=CC[C@@H]3[C@@]4(C)CC[C@H](O)C(C)(C)[C@@H]4CC[C@@]3(C)[C@]1(C)CC2 to CC(=O)O[C@H]1CC[C@]2(C)[C@H]3CC=C4[C@@H]5[C@@H](C)[C@H](C)CC[C@]5(C(=O)N(C)O)CC[C@@]4(C)[C@]3(C)CC[C@H]2C1(C)C, the EC50 falls from 16.2 µM to 7.9 µM (2.1-fold).

Tested on: not listed separately
Assay: Cytotoxicity against human 518A2 cells after 96 hrs by SRB assay
Type: functional, cell-based
Conditions: 518A2, 96 h

CON(C)C(=O)[C@]12CC[C@@H](C)[C@H](C)[C@H]1C1=CC[C@@H]3[C@@]4(C)CC[C@H](O)C(C)(C)[C@@H]4CC[C@@]3(C)[C@]1(C)CC2 and CON(C)C(=O)[C@]12CC[C@@H](C)[C@H](C)[C@H]1C1=CC[C@@H]3[C@@]4(C)CCC(=O)C(C)(C)[C@@H]4CC[C@@]3(C)[C@]1(C)CC2 are within 1.5-fold of each other in EC50: 22.9 µM for the first, 15.5 µM for the second.

Going from CON(C)C(=O)[C@]12CCC(C)(C)C[C@H]1C1=CC[C@@H]3[C@@]4(C)CCC(=O)C(C)(C)[C@@H]4CC[C@@]3(C)[C@]1(C)CC2 to CN(O)C(=O)[C@]12CCC(C)(C)C[C@H]1C1=CC[C@@H]3[C@@]4(C)CCC(=O)C(C)(C)[C@@H]4CC[C@@]3(C)[C@]1(C)CC2, the EC50 falls from 20.9 µM to 12.9 µM (1.6-fold). The second is the more potent here.

Compared with CON(C)C(=O)[C@]12CCC(C)(C)C[C@H]1C1=CC[C@@H]3[C@@]4(C)CC[C@H](O)C(C)(C)[C@@H]4CC[C@@]3(C)[C@]1(C)CC2, CC(=O)O[C@H]1CC[C@]2(C)[C@H]3CC=C4[C@@H]5[C@@H](C)[C@H](C)CC[C@]5(C(=O)N(C)O)CC[C@@]4(C)[C@]3(C)CC[C@H]2C1(C)C is 2.5-fold higher in EC50: 3.3 µM for the first, 8.4 µM for the second. The first is the more potent here.

Tested on: not listed separately
Assay: Cytotoxicity against mouse NIH/3T3 cells after 96 hrs by SRB assay
Type: cell-based
Conditions: NIH3T3, 96 h

CON(C)C(=O)[C@]12CC[C@@H](C)[C@H](C)[C@H]1C1=CC[C@@H]3[C@@]4(C)CC[C@H](O)C(C)(C)[C@@H]4CC[C@@]3(C)[C@]1(C)CC2 and CON(C)C(=O)[C@]12CC[C@@H](C)[C@H](C)[C@H]1C1=CC[C@@H]3[C@@]4(C)CCC(=O)C(C)(C)[C@@H]4CC[C@@]3(C)[C@]1(C)CC2 are within 1.5-fold of each other in EC50: 23.3 µM for the first, 18.5 µM for the second.

CON(C)C(=O)[C@]12CCC(C)(C)C[C@H]1C1=CC[C@@H]3[C@@]4(C)CCC(=O)C(C)(C)[C@@H]4CC[C@@]3(C)[C@]1(C)CC2 and CN(O)C(=O)[C@]12CCC(C)(C)C[C@H]1C1=CC[C@@H]3[C@@]4(C)CCC(=O)C(C)(C)[C@@H]4CC[C@@]3(C)[C@]1(C)CC2 are within 1.5-fold of each other in EC50: 13.7 µM for the first, 9.2 µM for the second.

Compared with CON(C)C(=O)[C@]12CCC(C)(C)C[C@H]1C1=CC[C@@H]3[C@@]4(C)CC[C@H](O)C(C)(C)[C@@H]4CC[C@@]3(C)[C@]1(C)CC2, CC(=O)O[C@H]1CC[C@]2(C)[C@H]3CC=C4[C@@H]5[C@@H](C)[C@H](C)CC[C@]5(C(=O)N(C)O)CC[C@@]4(C)[C@]3(C)CC[C@H]2C1(C)C is 3.1-fold lower in EC50: 20.4 µM for the first, 6.6 µM for the second.
